Experimental data from patent publication US5593970A, “Heterocyclic anthracycline analogs” (priority 1994, dated 1997).
Where a name gives a salt, the structure may show the parent alone. Read-outs that look alike come from different tables or passages of the source.

Columns and labels:
Experiment in all cases: Microculture tetrazolium assay
Type in all cases: cell-based
[1] = test system: SKOV3
[2] = test system: SKVLB; conditions: for IC50: SKVLB; for VLB/OV3: IC50 ratio SKVLB/SKOV3
[3] = test system: T47D
[4] = test system: LOX
[5] = test system: HT29
[6] = Homo sapiens, SK-OV-3, SKOV3, read-out: IC50
[7] = Homo sapiens, HT-29, HT29, read-out: IC50

IC50 [1, 6] [µM]	IC50 ([2]; read-out: IC50) [µM]	IC50 ([3]; Homo sapiens, read-out: IC50) [µM]	IC50 ([4]; read-out: IC50) [µM]	IC50 [5, 7] [µM]	IC50 ([1]; SKOV3, read-out: IC50) [µM]	IC50 ([3]; read-out: IC50) [µM]	IC50 ([5]; HT29, read-out: IC50) [µM]	Structure (SMILES)	VLB/OV3 [2]	IC50 ([5]; Homo sapiens, HT-29, HT29) [µM]	IC50 ([1]; Homo sapiens, SK-OV-3, SKOV3) [µM]	IC50 [2] [µM]	IC50 ([3]; Homo sapiens) [µM]	IC50 [4] [µM]
1.1	3.4	1.6	0.58	0.8				CC[C@H]1CO[C@H](O[C@H]2C[C@H](N)[C@H](O)[C@H](C)O2)c2c(O)c3c(c(O)c21)C(=O)c1ccccc1C3=O (mixture of isomers) [BCH-2085, (1'S,1S,4S) and (1'S,1R,4R)-5,12-dihydroxy-4-ethyl-1-(2',3',6'-trideoxy-3'-amino-L-lyxohexopyranose)-1,2,3,4-tetrahydro-(2-oxygen)-naphthacene-6,11-dione-hydrochloride]						
6.06	5.36	4.45	2.51	2.64				CC(=O)CC1CC2=C(C(=O)c3cc4ccccc4c(O)c3C2=O)C(O[C@H]2C[C@H](NC(=O)C(F)(F)F)[C@H](O)[C@H](C)O2)O1 (mixture of isomers) [BCH-2097, (1'S,1R,3S) and (1'S,1S,3R)(6-hydroxy-1-(2',3',6'-trideoxy-3'-trifluoroacetamido-4'-hydroxy-L-lyxohexopyranose)-5,12-dioxo-3,4,5,12-tetrahydroanthraceno[2,3-c]pyran-3-yl)propanone]	0.88					
0.432	0.398	0.314	0.143	0.168				CC(C)C(=O)C1Cc2c(O)c3c(c(O)c2C(O[C@H]2C[C@H](N)[C@H](O)[C@H](C)O2)O1)C(=O)c1ccccc1C3=O (mixture of isomers) [BCH-2120, (1'S, 1R,3S) and (1'S, 1S ,3R)-isopropyl-[5,12-dihydroxy-6,11-dioxo-1-(2',3',6'-trideoxy-3'-amino-L-lyxohexopyranose)-3,4,6,11-tetrahydroanthraceno-[2,3-c]-pyran-3-yl]-ketone hydrochloride]	0.92					
7.02	1.6	3.62	2.49	3.68				C[C@@H]1O[C@@H](OC2OC(CC(=O)C3CC3)CC3=C2C(=O)c2cc4ccccc4c(O)c2C3=O)C[C@H](NC(=O)C(F)(F)F)C1O (mixture of isomers) [BCH-2133, (1'S,1S,3R) and (1'S,1R,3S)-cyclopropyl-(6-hydroxy-1-((2',3',6'-trideoxy-3'-trifluoroacetamido-4'-hydroxy-L-arabino-hexopyranose)-5,10-dioxo-3,4,5,12-tetrahydronaphto-[2,3-c]pyran-3-yl)methylene)]	0.23					
24.8	18.5	16.4	12.8	7.38				COC(=O)[C@@H]1CC2=C(C(=O)c3c(cc4ccccc4c3O)C2=O)[C@@H](O)O1 (relative stereo) [BCH-703, Methyl(1,11-dihydroxy-5,12-dioxo-3,4,5,12-tetrahydroanthraceno[2,3-c]pyran-3-yl)formate]	0.75					
19.2	83	12	43.7	7.11				CC(=O)[C@@H]1CC2=C(C(=O)c3c(cc4ccccc4c3O)C2=O)[C@@H](O)O1 (relative stereo) [BCH-722]	4.32					
3.46	3.99	4.57	1.93	2.49				CO[C@H]1S[C@H](CO)CC2=C1C(=O)c1cc3ccccc3c(O)c1C2=O (relative stereo) [BCH-725]	1.15					
1.16	2.7	2.57	> 100	4.17				CC[C@@H]1CC2=C(C(=O)c3cc4ccccc4c(O)c3C2=O)[C@@H](O)O1 (relative stereo) [BCH-1162, (trans)-1,6-Dihydroxy-3-ethyl-1,2,3,4-tetrahydro-(2-oxygen) naphtacene-5,12-dione]	2.33					
> 100	> 100	> 100	> 100	> 100				CC[C@@H]1Cc2c(O)c3c(c(O)c2[C@@H](O)O1)C(=O)c1ccccc1C3=O (relative stereo) [BCH-1174, (trans)-6,11-dioxo-3-ethyl-1,5,12-trihydroxy-3,4,5,12-tetrahydroanthraceno-[2,3-c]-pyran]						
								CO[C@H]1O[C@H](C(=O)CP(=O)(OC)OC)CC2=C1C(=O)c1cc3ccccc3c(O)c1C2=O (relative stereo) [BCH-1650]	1.12	0.629	0.802	0.895	2.44	0.755
3.7	12.1	6.21	5.4	3.38				C=COC(=O)NCCCO[C@@H]1O[C@@H](C(C)=O)CC2=C1C(=O)c1cc3ccccc3c(O)c1C2=O (relative stereo) [BCH-2036]	3.27					
21	20.5	18.1	18.5	15.3				CC(=O)OCC1(C2CC3=C(C(=O)c4cc5ccccc5c(O)c4C3=O)C(O[C@H]3C[C@H](NC(=O)C(F)(F)F)[C@H](O)[C@H](C)O3)O2)OCCCO1 (single isomer, unassigned) [BCH-747]	0.98					
3.15	1.64	3.89	1.49	0.727				CC(=O)[C@H]1CC2=C(C(=O)c3cc4ccccc4c(O)c3C2=O)[C@H](O[C@H]2C[C@H](NC(=O)C(F)(F)F)[C@H](O)[C@H](C)O2)O1 [BCH-724, (1S',1S,3R)-Methyl-(6-hydroxy-1-(3'-trifluoroacyldaunosamine)-5,12-dioxo-3,4,5,12-tetrahydroanthraceno[2,3-C]pyran-3-yl) ketone]	0.52					
38.5	100	100	48	38.4				COCOCC(=O)C1CC2=C(C(=O)c3cc4ccccc4c(O)c3C2=O)C(O[C@H]2C[C@H](NC(=O)C(F)(F)F)[C@H](OC(=O)c3ccc([N+](=O)[O-])cc3)[C@H](C)O2)O1 (stereo partly shown) [BCH-732]						
	6.96		6.07		4.3	5.51	2.01	CC(=O)OCC1(C2CC3=C(C(=O)c4c(cc5ccccc5c4OC(C)=O)C3=O)C(O)O2)OCCCO1 (stereo not shown) [BCH-733]	1.62					
	8.97		9.76		8.82	6.41	5.77	CC(=O)OCC1(C2CC3=C(C(=O)c4cc5ccccc5c(OC(C)=O)c4C3=O)C(O)O2)OCCCO1 (stereo not shown) [BCH-734]	1.02					
4.9	8.41	7.73	10.1	5.99				CC(=O)OCC1(C2CC3=C(C(=O)c4c(cc5ccccc5c4O)C3=O)C(O[C@H]3C[C@H](NC(=O)C(F)(F)F)[C@H](O)[C@H](C)O3)O2)OCCCO1 (stereo partly shown) [BCH-748]	1.72					
1.5	2.31	3.83	100	2.8				CC1(C2CC3=C(CO2)C(=O)c2c(cc4ccccc4c2O)C3=O)OCCCO1 (stereo not shown) [BCH-1108]	1.5					

Structure (SMILES)	IC50 [1, 6] [µM]	IC50 ([2]; read-out: IC50) [µM]	IC50 ([3]; Homo sapiens, read-out: IC50) [µM]	IC50 ([4]; read-out: IC50) [µM]	IC50 [5, 7] [µM]	IC50 ([1]; SKOV3, read-out: IC50) [µM]	IC50 ([3]; read-out: IC50) [µM]	IC50 ([5]; HT29, read-out: IC50) [µM]	VLB/OV3 [2]	IC50 ([5]; Homo sapiens, HT-29, HT29) [µM]	IC50 ([1]; Homo sapiens, SK-OV-3, SKOV3) [µM]	IC50 [2] [µM]	IC50 ([3]; Homo sapiens) [µM]	IC50 [4] [µM]
CO[C@H]1S[C@H](C(C)=O)CC2=C1C(=O)c1cc3ccccc3c(O)c1C2=O (relative stereo) [BCH-1164, Trans-3-aceto-1-methoxy-6-hydroxy-1,2,3,4,5,12-hexahydro-2-(sulfur)naphthacene-5,12-dione]	9.36	9.2	12.2	> 100					0.98	6.97				
CCOC(=O)C1CC2=C(CO1)C(=O)c1c(c(OC(C)=O)c3ccccc3c1OC(C)=O)C2=O (stereo not shown) [BCH-655, Ethyl[6,11-diacetoxy-B,12-dioxo-3,4,5,12-tetrahydroanthraceno (2,3-c)pyran-3-yl]formate]	> 100	> 100	> 100	> 100	> 100									
CCOC(=O)C1CC2=C(CO1)C(=O)c1c(cc3ccccc3c1OC(C)=O)C2=O (stereo not shown) [BCH-656, Ethyl[11-acetoxy-5,12-dioxo-3,4,5,12-tetrahydro-anthraceno[2,3-c]pyran-3-yl]formate]	76.7	82.9	65.6	68.9	86.6				1.08					
CCOC(=O)C1CC2=C(CO1)C(=O)c1cc3ccccc3c(OC(C)=O)c1C2=O (stereo not shown) [BCH-659, Ethyl(6-acetoxy-5,12-dioxo-3,4,5,12-tetrahydroanthraceno[2,3-c]pyran-3-yl)formate]	4.53	2.54	3.83	4.82	2.36				0.56					
COCOCC(=O)C1CC2=C(CO1)C(=O)c1c(c(OC(C)=O)c3ccccc3c1OC(C)=O)C2=O (stereo not shown) [BCH-695, 6,11-diacetoxy-3-(2-methoxymethoxy)aceto-1,2,3,4-tetrahydro-(2-oxygen)naphthacene-5,12-dione]	30.8	15	25.2	21.5	11.4				0.49					
COCOCC(=O)C1CC2=C(CO1)C(=O)c1cc3ccccc3c(O)c1C2=O (stereo not shown) [BCH-697, 3-(2-methoxymethoxy)aceto-6-hydroxy-1,2,3,4-tetrahydro-(2-oxygen)napthacene-5,12-dione]	15.5		13	12.6	6.04				0.68			10.6		
C=CC1CC2=C(C(=O)c3cc4ccccc4c(OC(C)=O)c3C2=O)C(OC)O1 (stereo not shown) [BCH-716, 6-acetoxy-1-methoxy-1,2,3,4-tetrahydro-3-vinyl-(2-oxygen)naphthacene-5,12-dione]	> 100	85.5	70.3	41.6	> 100									
